Results published in US10881110B2, “Herbicidal compositions comprising isoxazolo[5,4-b]pyridines” (BASF SE, priority 2014, dated 2021).

Key:
Assay in all cases: greenhouse post-emergence herbicidal test
ABUTH = format: in vivo, Abutilon theophrast; parameters: key to herbicidal activity against ABUTH found: rating on a scale from 0 to 100; conditions: for herbicidal activity against ABUTH found: post emergence
Experimental: (§1) The culture containers used were plastic pots containing medium loamy sand with approximately 4.6% of humus and 69.9% sand as substrate. The seeds of the test plants were sown separately for each species.
(§2) For the post-emergence treatment, the test plants were grown to a plant height of from 1 to 15 cm, depending on the plant habit, and only then treated with the active compounds which had been suspended or emulsified in water. To this end, the test plants were either sown directly, and grown in the same containers, or they were first grown separately as seedlings and transplanted into the test containers a few days prior to treatment.
(§3) Depending on the species, the plants were kept at 10-25° C. and 20-35° C., respectively.
(§4) The test period extended over 1 to 3 weeks. During this time, the plants were tended and their response to the individual treatments was evaluated 20 days after treatment except mentioned otherwise.
(§5) Evaluation was carried out using a scale from 0 to 100. 100 means no emergence of the plants, or complete destruction of at least the above-ground parts, and 0 means no damage or normal course of growth.
(§6) The respective stated components A and B, and, if appropriate, C, were formulated as a 10% by weight strength emulsion concentrate and, with addition of the amount of solvent system, introduced into the spray liquor used for applying the active compound. In the examples, the solvent used was water.
(§7) In the examples below, using the method of S. R. Colby (1967) “Calculating synergistic and antagonistic responses of herbicide combinations”, Weeds 15, p. 22 ff., the value E, which is expected if the activity of the individual active compounds is only additive, was calculated. E=X+Y−(X·Y/100)

GERDI = format: in vivo, Geranium dissectum; parameters: key to herbicidal activity against GERDI found: rating on a scale from 0 to 100; conditions: for herbicidal activity against GERDI found: I.1 62.5 g/ha
Experimental: as §1, §2, §3, §4, §5, §6, §7

MATCH = format: in vivo, Matricaria recutita; parameters: key to herbicidal activity against MATCH found: rating on a scale from 0 to 100; conditions: for herbicidal activity against MATCH found: I.1 62.5 g/ha
Experimental: as §1, §2, §3, §4, §5, §6, §7

POLCO = format: in vivo, Polygonum convolvulus; parameters: key to herbicidal activity against POLCO found: rating on a scale from 0 to 100
Experimental: as §1, §2, §3, §4, §5, §6, §7

ECHCG = format: in vivo, Echinochloa crus-galli; parameters: key to herbicidal activity against ECHCG found / herbicidal activity against ECHCH found: scale 0 to 100; conditions: post emergence; for herbicidal activity against ECHCG found: B.167 125 g/ha a.i.
Experimental: as §1, §2, §3, §4, §5, §6, §7

KCHSC = format: in vivo, Kochia scoparia; parameters: key to herbicidal activity against KCHSC found: rating on a scale from 0 to 100; conditions: for herbicidal activity against KCHSC found: post emergence
Experimental: as §1, §2, §3, §4, §5, §6, §7

GALAP = format: in vivo, Galium aparine; conditions: Galium aparine, post-emergence, 480 h, read-out: herbicidal activity against GALAP found
Experimental: as §1, §2, §3, §4, §5, §6, §7

ERICA = format: in vivo, Conyza canadensis; parameters: key to herbicidal activity against ERICA found: rating on a scale from 0 to 100; conditions: post emergence
Experimental: as §1, §2, §3, §4, §5, §6, §7

ALOMY = format: in vivo, Alopecurus myosuroides; parameters: key to herbicidal activity against ALOMY found: rating on a scale from 0 to 100; conditions: post emergence; for herbicidal activity against ALOMY found: I.1 62.5 g/ha
Experimental: as §1, §2, §3, §4, §5, §6, §7

APESV = format: in vivo, Apera spica-venti; parameters: key to herbicidal activity against APESV found: rating on a scale from 0 to 100; conditions: post emergence
Experimental: as §1, §2, §3, §4, §5, §6, §7

PAPRH = format: in vivo, Papaver rhoeas; parameters: key: rating on a scale from 0 to 100
Experimental: as §1, §2, §3, §4, §5, §6, §7

IPOHE = format: in vivo, Ipomoea hederacea; parameters: key to herbicidal activity against IPOHE found: rating on a scale from 0 to 100
Experimental: as §1, §2, §3, §4, §5, §6, §7

VIOAR = format: in vivo, Viola arvensis; conditions: Viola arvensis, post-emergence, read-out: herbicidal activity against VIOAR found
Experimental: as §1, §2, §3, §4, §5, §6, §7

[1] = I.1 62.5 g/ha, B.167 62.5 g/ha a.i.
[2] = post emergence, B.167 125 g/ha a.i.
[3] = I.1 31.25 g/ha, B.88 1 g/ha a.i.
[4] = I.1 15.62 g/ha, B.88 1 g/ha a.i.
[5] = I.1 31.25 g/ha, B.88 2 g/ha a.i.
[6] = I.1 62.5 g/ha, B.88 1 g/ha a.i.
[7] = I.1 62.5 g/ha, B.88 2 g/ha a.i.
[8] = Geranium dissectum, post-emergence, 480 h, read-out: herbicidal activity against GERDI found
[9] = I.1 62.5 g/ha, B.57 2 g/ha a.i.

## O=C(O)c1c(Cl)ccc2cc(Cl)cnc12 [B.167, quinclorac]
ABUTH; [1]
  herbicidal activity against ABUTH found: 65
ABUTH; I.1 62.5 g/ha, B.167 125 g/ha a.i.
  herbicidal activity against ABUTH found: 70
GERDI; [2]
  herbicidal activity against GERDI found: 0
MATCH; post emergence, B.167 62.5 g/ha a.i.
  herbicidal activity against MATCH found: 0
MATCH; [2]
  herbicidal activity against MATCH found: 30
POLCO; post emergence, I.1 15.62 g/ha, B.167 62.5 g/ha a.i.
  herbicidal activity against POLCO found: 0
POLCO; post emergence, I.1 15.62 g/ha, B.167 125 g/ha a.i.
  herbicidal activity against POLCO found: 30
POLCO; post emergence, I.1 62.5 g/ha, B.167 62.5 g/ha a.i.
  herbicidal activity against POLCO found: 0
POLCO; post emergence, I.1 62.5 g/ha, B.167 125 g/ha a.i.
  herbicidal activity against POLCO found: 30
ECHCG; I.1 15.62 g/ha
  herbicidal activity against ECHCG found: 20
ECHCG; I.1 31.25 g/ha
  herbicidal activity against ECHCG found: 20
KCHSC; I.1 31.25 g/ha, B.167 62.5 g/ha a.i.
  herbicidal activity against KCHSC found: 0
KCHSC; [1]
  herbicidal activity against KCHSC found: 0

## Nc1c([N+](=O)[O-])ccc(Oc2ccccc2)c1Cl [aclonifen]
GERDI; Geranium dissectum, post-emergence, 480 h, post emergence, aclonifen 250 g/ha a.i., read-out: herbicidal activity against GERDI found
  pest or weed control at 250 g/ha: 30%
GERDI; Geranium dissectum, post-emergence, 480 h, post emergence, aclonifen 500 g/ha a.i., read-out: herbicidal activity against GERDI found
  pest or weed control at 500 g/ha: 70%
GALAP; post emergence, aclonifen 250 g/ha a.i.
  pest or weed control at 250 g/ha: 80%
MATCH; Matricaria chamomilla, post-emergence, 480 h, post emergence, aclonifen 250 g/ha a.i., read-out: herbicidal activity against MATCH found
  pest or weed control at 250 g/ha: 0%
MATCH; Matricaria chamomilla, post-emergence, 480 h, post emergence, aclonifen 500 g/ha a.i., read-out: herbicidal activity against MATCH found
  pest or weed control at 500 g/ha: 0%
MATCH; Matricaria chamomilla, post-emergence, 480 h, post emergence, aclonifen 1000 g/ha a.i., read-out: herbicidal activity against MATCH found
  pest or weed control at 1000 g/ha: 0%
POLCO; Fallopia convolvulus, post-emergence, 480 h, post emergence, aclonifen 250 g/ha a.i., read-out: herbicidal activity against POLCO found
  pest or weed control at 250 g/ha: 85%
POLCO; Fallopia convolvulus, post-emergence, 480 h, post emergence, aclonifen 500 g/ha a.i., read-out: herbicidal activity against POLCO found
  pest or weed control at 500 g/ha: 95%
POLCO; Fallopia convolvulus, post-emergence, 480 h, post emergence, aclonifen 1000 g/ha a.i., read-out: herbicidal activity against POLCO found
  pest or weed control at 1000 g/ha: 85%
ECHCG; Echinochloa crus-galli, post-emergence, 480 h, aclonifen 250 g/ha a.i., read-out: herbicidal activity against ECHCG found
  pest or weed control at 250 g/ha: 50%
ECHCG; Echinochloa crus-galli, post-emergence, 480 h, aclonifen 500 g/ha a.i., read-out: herbicidal activity against ECHCG found
  pest or weed control at 500 g/ha: 80%
ERICA; Erigeron canadensis, post-emergence, 480 h, aclonifen 500 g/ha a.i., read-out: herbicidal activity against ERICA found
  pest or weed control at 500 g/ha: 0%
ERICA; Erigeron canadensis, post-emergence, 480 h, aclonifen 1000 g/ha a.i., read-out: herbicidal activity against ERICA found
  pest or weed control at 1000 g/ha: 0%
ALOMY; Alopecurus myosuroides, post-emergence, 480 h, aclonifen 250 g/ha a.i., read-out: herbicidal activity against ALOMY found
  pest or weed control at 250 g/ha: 30%
ALOMY; Alopecurus myosuroides, post-emergence, 480 h, aclonifen 500 g/ha a.i., read-out: herbicidal activity against ALOMY found
  pest or weed control at 500 g/ha: 60%
ALOMY; Alopecurus myosuroides, post-emergence, 480 h, aclonifen 1000 g/ha a.i., read-out: herbicidal activity against ALOMY found
  pest or weed control at 1000 g/ha: 70%

## C#CCN1C(=O)COc2cc(F)c(N3C(=O)C4=C(CCCC4)C3=O)cc21 [B.88, flumioxazin]
ABUTH; [3]
  herbicidal activity against ABUTH found: 90
GERDI; post emergence, B.88 1 g/ha a.i.
  herbicidal activity against GERDI found: 70
GERDI; post emergence, B.88 2 g/ha a.i.
  herbicidal activity against GERDI found: 70
APESV; [4]
  herbicidal activity against APESV found: 25
APESV; [3]
  herbicidal activity against APESV found: 25
APESV; [5]
  herbicidal activity against APESV found: 65
APESV; [6]
  herbicidal activity against APESV found: 25
APESV; [7]
  herbicidal activity against APESV found: 65
KCHSC; [4]
  herbicidal activity against KCHSC found: 85
KCHSC; [3]
  herbicidal activity against KCHSC found: 85
KCHSC; [6]
  herbicidal activity against KCHSC found: 85
PAPRH; I.1 15.62 g/ha, B.88 2 g/ha a.i.
  herbicidal activity against PAPRH found: 75
PAPRH; [3]
  herbicidal activity against PAPRH found: 25
PAPRH; [5]
  herbicidal activity against PAPRH found: 75
PAPRH; [6]
  herbicidal activity against PAPRH found: 25
PAPRH; [7]
  herbicidal activity against PAPRH found: 75
ALOMY; B.88 1 g/ha a.i.
  herbicidal activity against ALOMY found: 0
ALOMY; B.88 2 g/ha a.i.
  herbicidal activity against ALOMY found: 20

## CP(=O)(O)CCC(N)C(=O)O (stereo not drawn) [B.120, glufosinate-ammonium]
ABUTH; Abutilon theophrasti, post-emergence, 480 h, read-out: herbicidal activity against ABUTH found
  pest or weed control at 125 g/ha: 70%
GERDI; [8]
  pest or weed control at 62.5 g/ha: 40%
  pest or weed control at 125 g/ha: 90%
GALAP
  pest or weed control at 125 g/ha: 80%
MATCH; Matricaria chamomilla, post-emergence, 480 h, read-out: herbicidal activity against MATCH found
  pest or weed control at 62.5 g/ha: 55%
POLCO; Fallopia convolvulus, post-emergence, 480 h, read-out: herbicidal activity against POLCO found
  pest or weed control at 125 g/ha: 65%
KCHSC; Bassia scoparia, post-emergence, 480 h, read-out: herbicidal activity against KCHSC found
  pest or weed control at 62.5 g/ha: 45%
IPOHE; Ipomoea hederacea, post-emergence, 480 h, read-out: herbicidal activity against IPOHE found
  pest or weed control at 62.5 g/ha: 80%
VIOAR
  pest or weed control at 125 g/ha: 15%
PAPRH; 62.5 g/ha a.i.
  herbicidal activity against PAPRH found: 30

## COc1cc(OC)n2nc(NS(=O)(=O)c3c(C(F)(F)F)ccnc3OC)nc2n1 [B.57, pyroxsulam]
IPOHE; post emergence, I.1 62.5 g/ha, B.57 1 g/ha a.i.
  herbicidal activity against IPOHE found: 80
PAPRH; [9]
  herbicidal activity against PAPRH found: 0
ERICA; [9]
  herbicidal activity against ERICA found: 75
